From PMC6332274, “In Silico Identification and in Vitro Activity of Novel Natural Inhibitors of Trypanosoma brucei Glyceraldehyde-3-phosphate-dehydrogenase” (Molecules, 2015)
“Also recorded” adds a separate entry of the source. Like-named read-outs stand apart in the source and are kept apart here. Each block holds one molecule with its values, some of them ahead of it.

Tests used:
TbGAPDH [1] = conditions: most active inhibitor of natural origin previously known; cited from earlier work
TbGAPDH [2] = experiment: Previously known TbGAPDH inhibitors (literature); format: biochemical, Trypanosoma brucei; conditions: literature IC50 12 µM compared with IC50 of Compound 2
Method: In comparison to previously-known TbGAPDH inhibitors, the IC50 values of our compounds are quite low, so that these hits obtained from in silico screening can be considered quite strong inhibitors of the target enzyme. To our knowledge, the strongest TbGAPDH inhibitor known up to now is a synthetic adenosine derivative with an IC50 of […] [17].

recombinant TbGAPDH = molecular target: T1, recombinant TbGAPDH (Trypanosoma brucei brucei, UniProt P22512); experiment: TbGAPDH inhibition assay (spectrophotometric, NADH at 340 nm); format: biochemical; conditions: for % Inhibition at c = 50 µM / inhibition at 50 µM: 50 µM test compound, n.i. = no inhibition at 50 µM
T1 construct: histidine tag (cleaved yes); made in house; host or cells: E. coli BL21 (DE3)
Method: To experimentally validate the predictions of the in silico screening, a spectrophotometric assay with recombinant TbGAPDH, measuring the increase of NADH during the conversion of 3-phosophoglyceraldehyde into 1,3-bisphosphoglycerate, was used. The increase of absorbance at 340 nm was measured for 1 min after the addition of the substrate. Initially, each test compound was added in a concentration of 50 µM and the slope of the resulting linear plots of absorbance vs. time compared to that of a control recorded in the absence of an inhibitor.
In order to determine the activity of TbGAPDH, a spectrophotometric assay was used as described before. For that purpose, the increasing amount of produced NADH was measured at 340 nm with a Hitachi U-2900 UV-VIS-Spectrophotometer as a linear indicator for the activity of the catalytic protein. The activity determined without the addition of an inhibitor was set to 100%; the measured inhibitions were calculated accordingly. The assay was performed at 30 °C, in a buffer of 0.1 M TEA, 0.1 M glycine and 0.1 M EDTA with varying concentrations of the tested compounds in a total volume of 1 mL containing 7.17 µg TbGAPDH, 1.5 mM NAD^+ and 0.5 mM G-3-P. The tested inhibitors were solved in DMSO, resulting in a final concentration of 0.1%–1% of solvent in the assay solution. […] Typically, 5–7 different concentrations were measured (each of them in triplicate) to determine IC50 values, which were calculated using the software “Prism 3.00” (GraphPad) via nonlinear regression analysis. The measured concentration/effect curves are shown in Supplementary Figures S14–S18.

[3] = Cytotoxicity against mammalian cells; format: cell-based, rat
[4] = tested on: L6 rat skeletal myoblasts; experiment: Cytotoxicity against mammalian cells; format: cell-based; conditions: SI = IC50(cytotoxicity)/IC50(parasite), L6 vs T. brucei rhodesiense
[5] = tested on: T. brucei rhodesiense (STIB 900); experiment: In vitro antitrypanosomal activity against bloodstream forms; format: cell-based; conditions: Trypanosoma brucei, read-out: T. brucei rhodesiense (STIB 900) IC50
Method: Compounds 1–5 were tested for their in vitro activity against bloodstream forms of T. brucei rhodesiense (causative agent of East African HAT).

[6] = 30 °C, 1.5 mM NAD+, 0.5 mM G-3-P
[7] = L6 rat skeletal myoblasts, mean ± margin of deviation of two independent determinations, read-out: Cytotoxicity (L6) IC50
[8] = 30 °C, 1.5 mM NAD+, 0.5 mM G-3-P, 5–7 concentrations in triplicate, nonlinear regression, read-out: IC50 (TbGAPDH inhibition)
[9] = bloodstream forms, mean ± margin of deviation of two independent determinations

T1 sequence (P22512 whole entry): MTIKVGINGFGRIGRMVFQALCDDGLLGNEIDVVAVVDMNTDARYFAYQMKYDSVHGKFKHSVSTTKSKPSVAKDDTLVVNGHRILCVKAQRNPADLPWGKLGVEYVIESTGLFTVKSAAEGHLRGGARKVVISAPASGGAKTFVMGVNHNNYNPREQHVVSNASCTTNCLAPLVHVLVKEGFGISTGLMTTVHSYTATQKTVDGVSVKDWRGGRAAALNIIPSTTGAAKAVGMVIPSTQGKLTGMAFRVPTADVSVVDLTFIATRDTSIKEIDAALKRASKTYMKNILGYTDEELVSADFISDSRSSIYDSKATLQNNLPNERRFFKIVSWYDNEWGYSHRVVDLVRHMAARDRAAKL

Compound: COC(=O)/C=C(\C)CC[C@@]1(C)[C@H](C)CC[C@@]2(C)C(C(=O)O)=CCC[C@H]12 [monomethyl kolavate]
- IC50 (TbGAPDH [1]): 12 µM
- fold less potent than Compound 2 (TbGAPDH IC50) (TbGAPDH [2]): about 2.5 fold

Compound: COc1cc([C@@H]2c3cc4c(cc3[C@H](O)[C@H]3COC(=O)[C@H]23)OCO4)cc(OC)c1OC [Podophyllotoxin, reference compound]
- IC50 [3, 7]: 0.019 ± 0.002 µM

Compound: CC(C)=CCC/C(C)=C/Cc1ccc(O)c(C(=O)c2c(O)cc(C(=O)O)cc2C(=O)O)c1O [NP-011694 (1)]
- inhibition at 50 µM (recombinant TbGAPDH; [6]): > 50%
- IC50 (recombinant TbGAPDH; [8]): 24.6 ± 1.03 µM
- IC50 ([3]; rat): 50.6 ± 3.8 µM
- SI (selectivity index) [4]: 1.3
- IC50 [5, 9]: 39.5 ± 3.1 µM

Compound: CC(C)=CCC/C(C)=C/Cc1ccc(O)c(C(=O)c2c(O)cc(C=O)cc2C(=O)O)c1O [NP-013378 (4)]
- IC50 (recombinant TbGAPDH; [8]): 6.68 ± 1.04 µM
- IC50 ([3]; rat): 48.9 ± 4.1 µM
- SI (selectivity index) [4]: 7.3
- SI (selectivity index) ([4]; listed as 4): seven
- IC50 [5, 9]: 6.7 ± 2.2 µM

Compound: CCCC(=O)c1c(O)c(C)c(O)c(CC2=C(O)C(C)(C)C(O)=C(C(C)=O)C2=O)c1O [NP-013330 (3), flavaspidic acid AB]
- IC50 (recombinant TbGAPDH): 22 ± 1.03 µM
- IC50 [3, 7]: 54.2 ± 0.5 µM
- SI (selectivity index) [4]: 3.0
- SI (selectivity index) ([4]; listed as 3): not significantly selective; also recorded: three
- IC50 [5, 9]: 17.9 ± 1.6 µM

Compound: Oc1cc(O)cc(CCC/C=C\CCCCCCCCCc2cc(O)cc(O)c2)c1 [NP-014428 (5)]
- IC50 (recombinant TbGAPDH; [8]): 22.8 ± 1.01 µM
- IC50 ([3]; rat): 15.5 ± 1.8 µM
- SI (selectivity index) [4]: 0.5
- IC50 [5, 9]: 29.3 ± 6.3 µM

Compound: Nc1nc(N)nc(Nc2ccc([As]3SCC(CO)S3)cc2)n1 (stereo not drawn) [Melarsoprol, reference compound]
- IC50 [5]: 0.005 ± 0.001 µM

Compound: CC(C)=CCC/C(C)=C/Cc1ccc(O)c(C(=O)c2c(O)cc(C(=O)O)cc2C=O)c1O [NP-013296 (2)]
- IC50 (recombinant TbGAPDH; [8]): 4.73 ± 1.04 µM
- IC50 ([3]; rat): 48.7 ± 3.8 µM
- SI (selectivity index) [4]: 1.2
- SI (selectivity index) ([4]; listed as 2): not significantly selective
- IC50 [5, 9]: 41 ± 0.5 µM

Results, then the molecule that gave them:

- % Inhibition at c = 50 µM (recombinant TbGAPDH; [6]): n.i.
Compound: O=C(/C=C\c1ccc(O)cc1)NCCCCNC(=O)/C=C/c1ccc(O)cc1 [NP-015973]

- inhibition at 50 µM (recombinant TbGAPDH; [6]): 45%
Compound: C/C=C(\NC(=O)CCCCCCCCCCCCCCC(=O)O)C(=O)O [NP-019430]

- % Inhibition at c = 50 µM (recombinant TbGAPDH; [6]): n.i.
Compound: COc1ccc(/C=C/C(=O)c2c(OC)cc(OC)c(CC=C(C)C)c2OC)cc1 [NP-010904]

- % Inhibition at c = 50 µM (recombinant TbGAPDH; [6]): n.i.
Compound: CCCCCCC/C=C/C=C/C(=O)NCCc1ccc(O)cc1 [NP-007496]

- inhibition at 50 µM (recombinant TbGAPDH; [6]): 44%
Compound: CC(C)=CCc1c2c(c3occ(-c4ccc(O)c(O)c4)c(=O)c3c1O)C=CC(C)(C)O2 [NP-005755]

- % Inhibition at c = 50 µM (recombinant TbGAPDH; [6]): n.i.
Compound: COc1cc(O)c2c(=O)c(-c3c(O)cc(O)c4c(=O)cc(-c5ccc(O)cc5)oc34)c(-c3ccc(O)cc3)oc2c1 [NP-008941]

- inhibition at 50 µM (recombinant TbGAPDH; [6]): 33%
Compound: CC(C)=CCc1c(O)c(CC=C(C)C)c2occ(-c3ccc(O)c(O)c3)c(=O)c2c1O [NP-013070]

- inhibition at 50 µM (recombinant TbGAPDH; [6]): 24%
Compound: CC(C)=CCc1c(O)c2c(c3c1OC(C)(C)C=C3)OCC(c1ccc(O)cc1O)C2=O (stereo not drawn) [NP-012278]
